Experimental findings from patent US12187742B2 (XRAD Therapeutics, Inc., priority 2018, dated 2025) are described below.

Structures can show the parent of a compound that is named as a salt.

The target of one assay is ATM (Homo sapiens (Human), UniProt Q13315). The assay can be described thus: ATM in Cell Western Assay (pKAP1 in etoposide-treated MCF-7 cells). Type of assay: cell-based. In short, it runs like this: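 Cells received compounds in a 10-dose, 3-fold series from a 1 μM final top concentration, then 100 μM etoposide, for 1 hr at 37° C. They were then fixed with paraformaldehyde and permeabilized with 0.1% Triton X-100. After immunostaining, plates were scanned on an infrared imager.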

For another assay, the target named is DNA-PK (Homo sapiens (Human), UniProt P78527). The assay can be described thus: DNA-PK Enzyme-Linked Immunosorbent Assay (phosphorylation of GST-p53 (1-101) peptide). Type of assay: biochemical. The conditions noted are these: ELISA. The gist of the method: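 ELISA with plate-bound GST-p53 (1-101) phosphorylated by DNA-PK (0.1 μg/mL final) with 20 μM ATP for 1 h at 25 °C. Compounds tested over 10 3-fold doses from 100 nM top final. Phospho-p53 Ser15 detected by antibody, HRP and TMB, absorbance at 450 nm.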
(ELISA stands for enzyme-linked immunosorbent assay.)

The mark [1] stands for this setting: MCF-7 cells, etoposide 100 μM, 1 hr, pKAP1 readout.
Where [2] appears, read: pKAP1 in etoposide-treated MCF-7 cells.

Sequence of ATM (Q13315 whole entry): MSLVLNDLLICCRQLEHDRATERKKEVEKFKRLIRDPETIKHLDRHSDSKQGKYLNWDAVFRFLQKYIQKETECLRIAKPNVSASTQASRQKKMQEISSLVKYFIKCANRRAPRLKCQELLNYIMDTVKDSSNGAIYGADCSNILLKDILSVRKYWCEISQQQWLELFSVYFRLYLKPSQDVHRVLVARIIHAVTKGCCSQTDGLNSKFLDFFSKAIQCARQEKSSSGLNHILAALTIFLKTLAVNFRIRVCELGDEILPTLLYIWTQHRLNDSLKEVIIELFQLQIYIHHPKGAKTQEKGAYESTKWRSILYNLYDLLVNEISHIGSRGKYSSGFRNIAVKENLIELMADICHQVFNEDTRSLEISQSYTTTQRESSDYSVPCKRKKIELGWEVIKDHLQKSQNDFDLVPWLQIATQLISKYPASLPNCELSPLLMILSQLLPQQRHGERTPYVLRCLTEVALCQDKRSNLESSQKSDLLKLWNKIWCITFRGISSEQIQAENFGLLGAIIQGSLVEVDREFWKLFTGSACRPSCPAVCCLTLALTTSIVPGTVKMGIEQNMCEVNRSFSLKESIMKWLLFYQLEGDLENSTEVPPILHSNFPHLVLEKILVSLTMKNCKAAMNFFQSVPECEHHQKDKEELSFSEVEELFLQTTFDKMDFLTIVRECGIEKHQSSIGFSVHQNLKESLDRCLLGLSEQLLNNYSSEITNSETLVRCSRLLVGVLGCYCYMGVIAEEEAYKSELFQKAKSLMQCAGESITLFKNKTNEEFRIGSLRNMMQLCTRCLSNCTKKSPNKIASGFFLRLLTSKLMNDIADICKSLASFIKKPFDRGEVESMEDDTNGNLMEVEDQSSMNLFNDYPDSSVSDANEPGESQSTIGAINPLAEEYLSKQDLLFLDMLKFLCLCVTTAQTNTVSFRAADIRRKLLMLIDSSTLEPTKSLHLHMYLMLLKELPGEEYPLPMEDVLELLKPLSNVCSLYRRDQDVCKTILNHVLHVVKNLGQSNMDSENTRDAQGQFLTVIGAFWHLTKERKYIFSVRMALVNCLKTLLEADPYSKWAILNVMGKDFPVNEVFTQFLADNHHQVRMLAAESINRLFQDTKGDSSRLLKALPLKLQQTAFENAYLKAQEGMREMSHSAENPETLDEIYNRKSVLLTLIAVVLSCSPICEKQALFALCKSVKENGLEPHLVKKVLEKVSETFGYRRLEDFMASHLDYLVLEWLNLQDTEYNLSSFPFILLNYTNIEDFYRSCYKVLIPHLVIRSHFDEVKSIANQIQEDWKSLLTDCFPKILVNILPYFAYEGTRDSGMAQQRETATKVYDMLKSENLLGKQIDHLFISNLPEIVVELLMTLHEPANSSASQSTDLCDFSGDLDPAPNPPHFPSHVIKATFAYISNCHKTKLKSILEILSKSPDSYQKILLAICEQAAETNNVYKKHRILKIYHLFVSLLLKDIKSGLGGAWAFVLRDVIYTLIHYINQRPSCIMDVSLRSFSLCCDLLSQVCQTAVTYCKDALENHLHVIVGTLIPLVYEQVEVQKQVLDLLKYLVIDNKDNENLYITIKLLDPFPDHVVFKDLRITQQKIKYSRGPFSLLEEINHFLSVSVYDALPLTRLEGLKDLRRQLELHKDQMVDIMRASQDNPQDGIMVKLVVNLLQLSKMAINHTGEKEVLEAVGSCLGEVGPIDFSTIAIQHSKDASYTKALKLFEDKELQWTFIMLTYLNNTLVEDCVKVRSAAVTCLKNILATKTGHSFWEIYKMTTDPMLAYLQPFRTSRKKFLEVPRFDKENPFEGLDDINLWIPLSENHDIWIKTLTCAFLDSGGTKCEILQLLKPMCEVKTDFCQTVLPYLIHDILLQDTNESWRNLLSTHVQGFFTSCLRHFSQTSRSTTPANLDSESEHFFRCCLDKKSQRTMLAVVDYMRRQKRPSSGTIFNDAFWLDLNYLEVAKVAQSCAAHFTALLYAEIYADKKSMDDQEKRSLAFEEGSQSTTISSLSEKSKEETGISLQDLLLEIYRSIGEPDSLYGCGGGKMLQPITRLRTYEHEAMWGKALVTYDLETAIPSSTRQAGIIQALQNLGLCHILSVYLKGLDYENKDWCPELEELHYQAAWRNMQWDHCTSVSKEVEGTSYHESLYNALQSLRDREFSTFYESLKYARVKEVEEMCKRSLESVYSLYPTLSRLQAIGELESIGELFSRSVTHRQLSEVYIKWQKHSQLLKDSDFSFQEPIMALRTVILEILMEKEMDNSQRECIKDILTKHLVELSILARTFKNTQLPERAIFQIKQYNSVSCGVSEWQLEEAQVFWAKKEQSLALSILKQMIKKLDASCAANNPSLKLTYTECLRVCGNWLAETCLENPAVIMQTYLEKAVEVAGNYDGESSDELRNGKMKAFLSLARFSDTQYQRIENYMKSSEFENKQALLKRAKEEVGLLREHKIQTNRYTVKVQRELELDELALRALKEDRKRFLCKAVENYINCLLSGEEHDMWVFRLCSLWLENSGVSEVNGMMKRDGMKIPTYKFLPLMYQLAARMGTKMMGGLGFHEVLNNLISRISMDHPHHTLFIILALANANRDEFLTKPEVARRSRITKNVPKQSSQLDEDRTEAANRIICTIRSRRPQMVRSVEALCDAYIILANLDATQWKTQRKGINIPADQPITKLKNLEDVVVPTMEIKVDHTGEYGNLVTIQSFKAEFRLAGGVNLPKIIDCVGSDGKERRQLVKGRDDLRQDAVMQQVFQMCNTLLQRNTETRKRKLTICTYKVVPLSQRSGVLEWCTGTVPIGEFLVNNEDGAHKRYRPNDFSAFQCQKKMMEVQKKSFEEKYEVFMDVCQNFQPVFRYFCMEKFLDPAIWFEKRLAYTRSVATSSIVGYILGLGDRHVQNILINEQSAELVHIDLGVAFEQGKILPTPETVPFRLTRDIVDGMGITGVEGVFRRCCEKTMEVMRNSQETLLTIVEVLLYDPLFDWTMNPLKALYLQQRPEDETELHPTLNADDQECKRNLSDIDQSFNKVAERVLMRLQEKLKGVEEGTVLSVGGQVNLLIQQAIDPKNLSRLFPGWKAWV

One may read the IC50 as the concentration that gives 50% inhibition. A low value points to greater potency in that assay. Regarding `CNCCOc1ncc(-c2ccc3ncc4c(c3c2)C2(CC2)C(=O)N4C)cc1NS(=O)(=O)c1ccccc1` [Example 43, N-(5-(3′-Methyl-2′-oxo-2′,3′-dihydrospiro [cyclopropane-1,1′-pyrrolo[2,3-c]quinolin]-8′-yl)-2-(2-(methylamino)ethoxy)pyridin-3-yl) benzenesulfonamide], the IC50 against ATM (setting [1]) is 1 to 100 nM; against DNA-PK (ATP 20 μM), 0.5 to 1 nM.

With `CNCCOc1ncc(-c2ccc3ncc4c(c3c2)C2(CCC2)C(=O)N4C)cc1NS(C)(=O)=O` [Example 249, N-(5-(3′-Methyl-2′-oxo-2′,3′-dihydrospiro[cyclobutane-1,1′-pyrrolo[2,3-c]quinolin]-8′-yl)-2-(2-(methylamino)ethoxy)pyridin-3-yl) methanesulfonamide], the IC50 at ATM (setting [1]) is 1 to 100 nM; on DNA-PK (ATP 20 μM), less than 0.5 nM.

On to `CN1C(=O)C2(CCC2)c2c1cnc1ccc(-c3cnc(N4CCC(N(C)C)CC4)c(NS(=O)(=O)N(C)C)c3)cc21` [Example 226, 8′-{6-[4-(Dimethylamino)piperidin-1-yl]-5-[(dimethylsulfamoyl)amino]pyridin-3-yl}-3′-methyl-2′,3′-dihydrospiro[cyclobutane-1,1′-pyrrolo[2,3-c]quinoline]-2′-one], for which the IC50 at ATM (setting [1]) was 0.5 to 1 nM; on DNA-PK (ATP 20 μM), less than 0.5 nM.

In the case of `CN1C(=O)C2(CC2)c2c1cnc1ccc(-c3cnc(Cl)c(NS(=O)(=O)c4ccccc4)c3)cc21` [Example 15, N-(2-Chloro-5-(3′-methyl-2′-oxo-2′,3′-dihydrospiro[cyclopropane-1,1′-pyrrolo[2,3-c]quinolin]-8′-yl)pyridin-3-yl)benzenesulfonamide], the IC50 against ATM (setting [1]) is 1 to 100 nM; at DNA-PK (ATP 20 μM) it was less than 0.5 nM.

Turning to `CN1C(=O)C2(CCC2)c2c1cnc1ccc(-c3cnc(N4CCC(N5CCCC(F)(F)C5)CC4)c(NS(C)(=O)=O)c3)cc21` [Example 251, N-(2-(3,3-Difluoro-[1,4′-bipiperidin]-1′-yl)-5-(3′-methyl-2′-oxo-2′,3′-dihydrospiro[cyclobutane-1,1′-pyrrolo[2,3-c]quinolin]-8′-yl)pyridin-3-yl)methanesulfonamide], the IC50 was in the range of 1 to 100 nM at ATM (setting [1]) and 0.5 to 1 nM against DNA-PK (ATP 20 μM).

Consider `CC(C)NCCOc1ncc(-c2cc3c4c(cnc3cc2F)N(C)C(=O)C42CN(c3cccc(F)c3)C2)cc1NS(C)(=O)=O` [Example 539, N-(5-(7′-Fluoro-1-(3-fluorophenyl)-3′-methyl-2′-oxo-2′,3′-dihydrospiro[azetidine-3,1′-pyrrolo[2,3-c]quinolin]-8′-yl)-2-(2-(isopropylamino)ethoxy)pyridin-3-yl)methanesulfonamide], for which the IC50 against ATM (setting [2]) is 1 to 100 nM; against DNA-PK (20 μM ATP), less than 0.5 nM.

As to `CC(C)NCCOc1ncc(-c2cc3c(cc2F)ncc2c3[C@]3(C[C@H](c4ccccn4)C3)C(=O)N2C)cc1NS(C)(=O)=O` [Example 434, cis-N-(5-(7′-Fluoro-3′-methyl-2′-oxo-3-(pyridin-2-yl)-2′,3′-dihydrospiro [cyclobutane-1,1′-pyrrolo[2,3-c]quinolin]-8′-yl)-2-(2-(isopropylamino)ethoxy)pyridin-3-yl)methanesulfonamide], the IC50 against ATM (setting [2]) and against DNA-PK (20 μM ATP) was 1 to 100 nM in each case.

Regarding `CN1C(=O)C2(CCC2)c2c1cnc1cc(F)c(-c3cnc(N4CC(N(C)C)C4)c(NS(=O)(=O)C4CC4)c3)cc21` [Example 319, N-(2-(3-(Dimethylamino)azetidin-1-yl)-5-(7′-fluoro-3′-methyl-2′-oxo-2′,3′-dihydrospiro[cyclobulane-1,1′-pyrrolo[2,3-c]quinolin]-8′-yl)pyridin-3-yl)cyclopropanesulfonamide hydrochloride], the IC50 against ATM (setting [1]) and against DNA-PK (ATP 20 μM) was 1 to 100 nM each time.

Regarding `CN(C)CCCOc1ncc(-c2ccc3ncc4c(c3c2)C2(CC2)C(=O)N4C)cc1OCc1ccccc1` [Example 59, 8′-(5-(Benzyloxy)-6-(3-(dimethylamino)propoxy)pyridin-3-yl)-3methylspiro [cycloproane-1,1′-pyrrolo [2,3-c]quinolin]-2′(3′-)-one], the IC50 against ATM (setting [1]) and against DNA-PK (ATP 20 μM) was 1 to 100 nM throughout.

`CN(C)CCCOc1ncc(-c2ccc3ncc4c(c3c2)CC2(CCC2)C(=O)N4C)cc1NS(=O)(=O)c1ccccc1` [Example 73, N-(2-(3-(Dimethylamino)propoxy)-5-(4-methyl-3-oxo-3,4-dihydro-1H-spiro[benzo[f][1,7]naphthyridine-2,1′-cyclobutan]-9-yl)pyridin-3-yl)benzenesulfonamide]: the IC50 at ATM (setting [1]) and on DNA-PK (ATP 20 μM) was 1 to 100 nM throughout.

Take `CN(C)CCCOc1ncc(-c2ccc3ncc4c(c3c2)C2(CCC2)C(=O)N4C)cc1NS(=O)(=O)c1cc(F)cc(C(F)(F)F)c1` [Example 156, N-(2-(3-(Dimethylamino)propoxy)-5-(3′-methyl-2′-oxo-2′,3′-dihydrospiro[cyclobulane-1,1′-pyrrolo[2,3-c]quinolin]-8′-yl)pyridin-3-yl)-3-fluoro-5-(trifluoromethyl)benzenesulfonamide hydrochloride]: the IC50 against ATM (setting [1]) and against DNA-PK (ATP 20 μM) was 1 to 100 nM in each case.

`CC(C)NCCOc1ncc(-c2cc3c(cc2F)ncc2c3[C@]3(C[C@@H](Nc4ccccc4)C3)C(=O)N2C)cc1NS(C)(=O)=O` [Example 460, trans-N-(5-(7′-Fluoro-3′-methyl-2′-oxo-3-(phenylamino)-2′,3′-dihydrospiro[cyclobutane-1,1′-pyrrolo[2,3-c]quinolin]-8′-yl)-2-(2-(isopropylamino)ethoxy)pyridin-3-yl)methanesulfonamide hydrochloride]: the IC50 at ATM (setting [2]) and on DNA-PK (20 μM ATP) was 1 to 100 nM in each case.

In the case of `CN(C)CCCOc1ncc(-c2ccc3ncc4c(c3c2)C2(CCC2)C(=O)N4C)cc1NS(=O)(=O)c1ccccn1` [Example 148, N-(2-(3-(Dimethylamino)propoxy)-5-(3′-methyl-2-oxo-2′,3′-dihydrospiro[cyclobulane-1,1′-pyrrolo[2,3-c]quinolin]-8′-yl)pyridin-3-yl)pyridine-2-sulfonamide hydrochloride], the IC50 on ATM (setting [1]) and on DNA-PK (ATP 20 μM) was 1 to 100 nM throughout.

Take `CN(C)CCCOc1ncc(-c2ccc3ncc4c(c3c2)C2(CC2)C(=O)N4C)cc1NS(=O)(=O)c1cc(Cl)cc(Cl)c1` [Example 125, 3.5-Dichloro-IN-(2-(3-(dimethylamino)propoxy)-5-(3′-methyl-2′-oxo-2′,3′-dihydrospiro[cyclopropane-1,1′-pyrrolo[2,3-c]quinolin]-8′-yl)pyridin-3-yl)benzenesulfonamide]: the IC50 is 1 to 100 nM against ATM (setting [1]) and less than 0.5 nM at DNA-PK (ATP 20 μM).

Turning to `CC(C)NCCOc1ncc(-c2cc3c(cc2F)ncc2c3[C@]3(C[C@H](OC(C)C)C3)C(=O)N2C)cc1NS(C)(=O)=O` [Example 395, cis-N-(5-(7′-Fluoro-3-isopropoxy-3′-methyl-2′-oxo-2′,3′-dihydrospiro[cyclobutane-1,1′-pyrrolo[2,3-c]quinolin]-8′-yl)-2-(2-(isopropylamino)ethoxy)pyridin-3-yl)methanesulfonamide], the IC50 against ATM (setting [2]) and at DNA-PK (20 μM ATP) was 1 to 100 nM each time.

For `CN1C(=O)C2(CCC2)c2c1cnc1ccc(-c3cnc(OCCNC(C)(C)C)c(NS(C)(=O)=O)c3)cc21` [Example 309], the results for the IC50 against ATM (setting [1]) and against DNA-PK (ATP 20 μM) were 1 to 100 nM and 0.5 to 1 nM, respectively.

As to `CN(C)CCCOc1ncc(-c2ccc3ncc4c(c3c2)C2(CCC2)C(=O)N4)cc1NS(C)(=O)=O` [Example 237, N-(2-(3-(Dimethylamino)propoxy)-5-(2′-oxo-2′,3′-dihydrospiro [cyclobutane-1,1′-pyrrolo[2,3-c]quinolin]-8′-yl)pyridin-3-yl)methanesulfonamide], the IC50 at ATM (setting [1]) and on DNA-PK (ATP 20 μM) was 1 to 100 nM each time.

Take `CC(C)NCCOc1ncc(-c2cc3c(cc2F)ncc2c3[C@]3(C[C@H](Cc4ccccc4)C3)C(=O)N2C)cc1NS(C)(=O)=O` [Example 451, cis-N-(5-(3-Benzyl-7′-fluoro-3′-methyl-2′-oxo-2′,3′-dihydrospiro[cyclobutane-1,1′-pyrrolo[2,3-c]quinolin]-8′-yl)-2-(2-(isopropylamino)ethoxy)pyridin-3-yl)methanesulfonamide]: the IC50 against ATM (setting [2]) and against DNA-PK (20 μM ATP) was 1 to 100 nM in each case.

Take `CN1C(=O)C2(CC2)c2c1cnc1ccc(-c3cnc(N4CCC(N(C)C)CC4)c(NS(=O)(=O)C4CC4)c3)cc21` [Example 113, N-(2-(4-(Dimethylamino)piperidin-1-yl)-5-(3′-methyl-2′-oxo-2′,3′-dihydrospiro[cyclopropane-1,1′-pyrrolo[2,3-c]quinolin]-8′-yl)pyridin-3-yl)cyclopropanesulfonamide]: the IC50 against ATM (setting [1]) and against DNA-PK (ATP 20 μM) was less than 0.5 nM each time.

In the case of `CN(C)CCCOc1ncc(-c2ccc3ncc4c(c3c2)C2(CCC2)C(=O)N4C)cc1NS(=O)(=O)c1cc(F)cc(Cl)c1` [Example 171, 3-Chloro-N-(2-(3-(dimethylamino)propoxy)-5-(3′-methyl-2′-oxo-2′,3′-dihydrospiro[cyclobutane-1,1′-pyrrolo[2,3-c]quinolin]-8′-yl)pyridin-3-yl)-5-fluorobenzenesulfonamide hydrochloride], the IC50 lay in the range of 1 to 100 nM on ATM (setting [1]) and 0.5 to 1 nM against DNA-PK (ATP 20 μM).

`COc1ccc([C@H]2C[C@@]3(C2)C(=O)N(C)c2cnc4cc(F)c(-c5cnc(OCCNC(C)C)c(NS(C)(=O)=O)c5)cc4c23)cc1` [Example 421, hydrochloride]: the half-maximal inhibitory concentration (IC50) was greater than 100 nM at ATM (setting [2]) and 1 to 100 nM on DNA-PK (20 μM ATP).

In the case of `CN1C(=O)C2(CCC2)c2c1cnc1ccc(-c3cnc(N4CCC(N5CCCCC5)CC4)c(NS(=O)(=O)C4CC4)c3)cc21` [Example 207, N-(2-([1,4′-Bipiperidin]-1′-yl)-5-(3′-methyl-2′-oxo-2′,3′-dihydrospiro[cyclobutane-1,1′-pyrrolo[2,3-c]quinolin]-8′-yl)pyridin-3-yl)cyclopropanesulfonamide hydrochloride], the IC50 against ATM (setting [1]) is 1 to 100 nM; against DNA-PK (ATP 20 μM) it was less than 0.5 nM.
